From paper PMC11203719, “Mts1 (S100A4) and Its Peptide Demonstrate Cytotoxic Activity in Complex with Tag7 (PGLYRP1) Peptide” (International Journal of Molecular Sciences, 2024)
Entries after “also recorded” stand apart in the source; their conditions may differ. No end group written: not given here.

Legend:
[1] = target: T1, Mts1 (S100A4) (Homo sapiens, UniProt P26447); experiment: Microscale thermophoresis, binding to labeled Mts1
T1 construct: a functional fragment of the Tag7 protein (PGLYRP1) and a full-sized Mts1 protein (S100A4); His tag (from vector pQE-30; purified on HisTrap FF) (N); made in house; host or cells: Escherichia coli M15 (pREP4)
T1 sequence (P26447 whole entry, the tested form may be a part): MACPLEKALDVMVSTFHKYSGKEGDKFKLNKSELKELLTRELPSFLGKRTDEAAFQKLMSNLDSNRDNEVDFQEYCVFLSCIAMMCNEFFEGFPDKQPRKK
Procedure: To evaluate the protein–protein interaction of Mts1 with Tag7 and with peptides, 17.1, 17.1A, and 17.1B, a quantitative microscale thermophoresis method was used to reliably determine the parameters of the interaction of protein complexes.
To study the dissociation constant, purified Mts1 was fluorescently labeled using Alexa Fluor 633 (Invitrogen, Eugene, OR, USA) in accordance with the manufacturer’s protocol. Mts1 (200 nM) was preincubated for 20 min with Tag7-Mts1, 17.1-Mts1, 17.1A-Mts1, and 17.1B-Mts1 in the dark at room temperature in 16 different concentrations, obtained by sequential dilution. To study the dissociation constant of Tag7 with M7, Tag7 was fluorescently labeled using Alexa Fluor 488 (Invitrogen, Eugene, OR, USA) in accordance with the manufacturer’s protocol. Tag7 (200 nM) was preincubated for 20 min with M7 in the dark at room temperature in 16 different concentrations, obtained by sequential dilution. The samples were loaded into glass capillaries of Monolith NT Capillaries (NanoTemper Technologies GmbH, München, Germany) and analyzed by thermophoresis on a Monolith NT 115 nanotemperature apparatus (10% IR laser power). The signal quality was monitored using a NanoTemper Monolith device to detect possible ligand autofluorescence, deposition, aggregation, or ligand-induced changes in the photobleaching rate. The experiments were carried out in at least three repetitions and processed using affinity analysis software (MO Control v.1.6.1, NanoTemper Technologies GmbH, München, Germany).

[2] = tested on: Hsp70; settings: ref [19]; cited from earlier work
Text: Structural and functional analyses of Tag7 made it possible to localize the epitope of this protein necessary for interaction with TNFR1 and Hsp70. […] It was also possible to separate the activities of this bifunctional peptide.

[3] = tested on: TNFR1 on the surface of HEK293T cells; experiment: Cross-linking (BS3) to TNFR1 on cell surface, anti-TNFR1 pull-down, Western blot; type: binding, human; settings: 17.1-Mts1 at 1 nM, anti-TNFR1 beads
Procedure: We investigated the ability of peptide 17.1 to form a complex with Mts1 and TNFR1 on the cell surface. The 17.1-Mts1 complex was added to HEK293T cells with TNFR1s on their surface. After incubation, a crosslinking agent (BS^3) was added, forming covalent bonds between molecules located at a distance of less than 1 nm at the time of addition. Next, the cells were lysed, and membrane proteins were precipitated using anti-TNFR1 antibodies conjugated with magnetic beads. The obtained material was separated using SDS electrophoresis and detected using Western blotting with polyclonal antibodies to Mts1 or Tag7.
A column with CNBr-activated Sepharose 4B (GE Healthcare, Chicago, IL, USA) conjugated with 17.1 was prepared as described in accordance with the manufacture’s protocol. The recombinant Mts1 protein was loaded into a column with 17.1-Sepharose 4B. Then, the material was extensively washed with PBS plus 0.5 M NaCl, followed by PBS, eluted with 0.25 M triethylamine, pH 12. The eluted material was resolved using 12% SDS-PAGE and applied to a nitro-cellulose membrane. […] The chemiluminescence was recorded using iBright (Thermo Fisher Scientific, Boston, MA, USA). […] Protein concentrations were quantified using a Bradford assay kit (Thermo Fisher Scientific, Carlsbad, CA, USA). […]

[4] = tested on: Tag7-Hsp70 complex; settings: excess of Mts1; ref [22]; cited from earlier work
Text: (§1) During a study on the anticancer effect of the Tag7-Hsp70 complex on metastatic cells, the second partner of the Tag7 protein was identified. Tag7 interacts with Mts1 (metastasin 1, S100A4), a member of the S-100 family involved in metastasis processes. Both proteins form the Tag7-Mts1 chemotactic complex.

[5] = tested on: L929 cells; experiment: Cytotoxicity, L929 cells; type: cell-based; settings: complexes of Mts1 with 17.1A, 17.1B or full-sized Tag7; L929 cells (Figure 2b), 24 h, n = 5
[6] = tested on: TNFR1; settings: cited from earlier work; for inhibition of cytotoxic effect of TNFR1 ligands: ref [19]
Text: (§2) We investigated developing cytotoxic processes during TNFR1 activation and found two new proteins interacting with this receptor: the immune system regulator PGLYRP1 (Tag7) and DNA-hydrolyzing autoantibodies. […] For the manifestation of Tag7 cytotoxic action, the presence of a coactivator, stimulating cytotoxicity, is necessary. During antitumor studies, a cytotoxic complex released by human ... || Structural and functional analyses of Tag7 made it possible to localize the epitope of this protein necessary for interaction with TNFR1 and Hsp70. […] It was also possible to separate the activities of this bifunctional peptide.

[7] = tested on: Mts1; experiment: Affinity chromatography on 17.1-Sepharose with Western blot for Mts1; type: binding, human; settings: recombinant Mts1 100 ng, 17.1 immobilized on CNBr-activated Sepharose; eluted 0.25 M triethylamine; Mts1 eluted as tetramer
Procedure: In the previous section, we noted the competition between Hsp70 and Mts1 for the binding center of Tag7. We have shown that Hsp70 interacts with peptide 17.1, which is located at the C-terminal region of the polypeptide chain Tag7. […] The recombinant Mts1 protein (100 ng total protein, 0.1 mg/mL) was applied to CNBr-activated Sepharose with immobilized peptide 17.1. The bound proteins were eluted and analyzed using SDS-PAGE and a subsequent Western blot test with specific anti-Mts1 antibodies. It was shown that Mts1 is present in the eluate in the form of a tetramer (Figure 1).
A column with CNBr-activated Sepharose 4B (GE Healthcare, Chicago, IL, USA) conjugated with 17.1 was prepared as described in accordance with the manufacture’s protocol. The recombinant Mts1 protein was loaded into a column with 17.1-Sepharose 4B. Then, the material was extensively washed with PBS plus 0.5 M NaCl, followed by PBS, eluted with 0.25 M triethylamine, pH 12. The eluted material was resolved using 12% SDS-PAGE and applied to a nitro-cellulose membrane. […] The chemiluminescence was recorded using iBright (Thermo Fisher Scientific, Boston, MA, USA). […] Protein concentrations were quantified using a Bradford assay kit (Thermo Fisher Scientific, Carlsbad, CA, USA). […]

[8] = tested on: TNFR1-positive tumor cells; settings: cited from earlier work
Text: as §2

[9] = tested on: lymphocytes; settings: ref [22]; cited from earlier work
Text: as §1

HRDVQRT [17.1B]
affinity for Mts1 (in words) [1]: highly specific | affinity for Hsp70 [2]: high affinity for Hsp70

Mts1: recombinant human Mts1 (S100A4) protein
interaction with TNFR1 on cell surface [3]: binds to the TNFR1 receptor on the cell surface | displacement of Hsp70 from Tag7-Hsp70 complex [4]: displaces Hsp70 from the Tag7-Hsp70 complex

RSNYVLKG [17.1A]
affinity for Mts1 (in words) [1]: significantly higher apparent Kd; also recorded: low affinity | cytotoxic activity in complex with Mts1 [5]: does not contribute to the appearance of cytotoxicity | inhibition of cytotoxic effect of TNFR1 ligands [6]: responsible for binding to TNFR1 and inhibiting cytotoxicity

SNYVLKGHRDVQ [17.1]
affinity for Mts1 (in words) [1]: highly specific | binding to Mts1 [7]: 17.1 binds to Mts | death of tumor cells in combination with Hsp70 ([8]; in combination with Hsp70, ref [19]): induces the death of tumor cells | inhibition of cytotoxic effect of TNFR1 ligands [6]: inhibits the cytotoxic effect of TNFR1 ligands

Tag7-Mts1: complex of full-sized Tag7 with Mts1
Kd ([1]; first-named partner titrated (16 concentrations) to Alexa Fluor 633-labeled Mts1 (200 nM), 20 min, room temperature, at least three repetitions, mean ± SD): 9.21 ± 1.5 µM | cytotoxic activity ([8]; previous study, ref [22]): no cytotoxic activity | chemotactic activity [9]: induces the movement of lymphocytes along the concentration gradient of this complex

Tag7: recombinant full-size Tag7 protein (PGLYRP1)
affinity for Mts1 (in words) [1]: significantly higher apparent Kd | cytotoxic activity in complex with Mts1 [5]: does not have a cytotoxic effect on cells; also recorded: does not form a cytotoxic complex with the Mts1 protein | inhibition of cytotoxic activity of TNF and other TNFR1 ligands ([6]; previous work, reference not clearly printed): acts as an inhibitor of the cytotoxic activity of TNF and other TNFR1 ligands
